Counter-ions that a name gives are not always drawn.
Key:
Conditions in all cases: incubation time: 27 h, anaerobic, 37 °C
[1] = system: Clostridium sporogenes DSM 1664; experiment: growth (OD595) fold change vs plate DMSO controls (fold change (ratio)); higher = more growth
[2] = system: Clostridium sporogenes DSM 1664; experiment: fold change of Tryptamine concentration vs plate DMSO controls (fold change (ratio)); higher = more amine produced
[3] = system: Klebsiella aerogenes DSM 30053; experiment: fold change of Putrescine concentration vs plate DMSO controls (fold change (ratio)); higher = more amine produced
[4] = system: Klebsiella aerogenes DSM 30053; experiment: fold change of Histamine concentration vs plate DMSO controls (fold change (ratio)); higher = more amine produced
Method: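 Dose-response follow-up: bacteria (E. coli IAI1, K. aerogenes DSM 30053, C. sporogenes DSM 1664, R. gnavus DSM 108212) were grown anaerobically in mGAM at 37 °C for 27 h with compound at 0.6125-20 µM. Amines were measured in the whole culture by targeted LC-MS/MS. Metabolite fold change and OD595 fold change are relative to plate DMSO controls; n=2 biological replicates. OD fold changes are not clipped, so slightly negative values mean no growth.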

[5] = system: Klebsiella aerogenes DSM 30053; experiment: growth (OD595) fold change vs plate DMSO controls (fold change (ratio)); higher = more growth
[6] = system: Klebsiella aerogenes DSM 30053; experiment: fold change of Cadaverine concentration vs plate DMSO controls (fold change (ratio)); higher = more amine produced
[7] = system: Ruminococcus gnavus DSM 108212; experiment: fold change of 2-Phenylethylamine concentration vs plate DMSO controls (fold change (ratio)); higher = more amine produced
[8] = system: Ruminococcus gnavus DSM 108212; experiment: growth (OD595) fold change vs plate DMSO controls (fold change (ratio)); higher = more growth
[9] = system: Ruminococcus gnavus DSM 108212; experiment: fold change of Tryptamine concentration vs plate DMSO controls (fold change (ratio)); higher = more amine produced

N[C@@H](C(=O)N[C@@H]1C(=O)N2C(C(=O)O)=C(Cl)CC[C@H]12)c1ccccc1 [Loracarbef]
Conditions	fold change of Tryptamine concentration, [2]	growth, [1]
0.6125 µM	0.974	1.15
1.25 µM	0.86	0.723
2.5 µM	0.0468	-0.0147
5 µM	0.0243	-0.0473
10 µM	0.0223	-0.0388
20 µM	0.0215	-0.0407

O=C1NCCN1c1ncc([N+](=O)[O-])s1 [Niridazole]
Conditions	fold change of Tryptamine concentration, [2]	growth, [1]
0.6125 µM	0.708	1.08
1.25 µM	0.607	1.15
2.5 µM	0.181	0.588
5 µM	0.0568	0.258
10 µM	0.0233	-0.0146
20 µM	0.018	-0.0213

CC(=O)Oc1ccccc1C(=O)Nc1ncc([N+](=O)[O-])s1 [Nitazoxanide]
Conditions	fold change of Tryptamine concentration, [2]	growth, [1]
0.6125 µM	1.01	1.24
1.25 µM	0.989	1.23
2.5 µM	0.993	1.29
5 µM	0.314	0.809
10 µM	0.0174	-0.0196
20 µM	0.0175	-0.0243

O=[N+]([O-])c1ccc(O)c2ncccc12 [Nitroxoline]
Conditions	fold change of Cadaverine concentration, [6]	fold change of Histamine concentration, [4]	fold change of Putrescine concentration, [3]	growth, [5]
0.6125 µM	0.967	0.949	1.04	0.817
1.25 µM	0.966	0.911	1.03	0.815
2.5 µM	0.935	1.16	1.02	0.882
5 µM	0.971	0.926	1.06	0.884
10 µM	0.966	1.02	0.997	0.646
20 µM	0.977	0.852	1.01	0.584

NCc1ccccc1CC(=O)N[C@@H]1C(=O)N2C(C(=O)O)=C(CSc3nnnn3CC(=O)O)CS[C@H]12 [Ceforanide]
Conditions	fold change of Tryptamine concentration, [2]	growth, [1]
0.6125 µM	0.989	0.842
1.25 µM	1	0.767
2.5 µM	1.04	0.564
5 µM	0.576	0.36
10 µM	0.035	-0.0035
20 µM	0.0236	-0.0325

CC(=O)OCC1=C(C(=O)O)N2C(=O)[C@@H](NC(=O)Cc3cccs3)[C@H]2SC1 [Cephalothin sodium salt]
Conditions	fold change of Tryptamine concentration, [2]	growth, [1]
0.6125 µM	0.905	0.841
1.25 µM	0.0953	0.629
2.5 µM	0.0223	-0.0397
5 µM	0.0219	-0.0266
10 µM	0.0236	-0.0343
20 µM	0.0234	-0.0372

Cc1ncc([N+](=O)[O-])n1CC(C)O (stereo not drawn) [Secnidazole]
Conditions	fold change of Tryptamine concentration, [2]	growth, [1]
0.6125 µM	0.901	0.982
1.25 µM	0.773	1.11
2.5 µM	0.735	1.16
5 µM	0.035	0.156
10 µM	0.026	-0.0233
20 µM	0.0204	-0.023

CC(C)/N=c1\cc2n(-c3ccc(Cl)cc3)c3ccccc3nc-2cc1Nc1ccc(Cl)cc1 [Clofazimine]
Conditions	fold change of Tryptamine concentration, [2]	growth, [1]
0.6125 µM	0.975	1.11
1.25 µM	0.893	1.34
2.5 µM	0.681	1.22
5 µM	0.365	0.64
10 µM	0.379	0.578
20 µM	0.0193	-0.0109

Oc1c(Cl)cc(Cl)c(Cl)c1Cc1c(O)c(Cl)cc(Cl)c1Cl [Hexachlorophene]
Conditions	fold change of Tryptamine concentration, [2]	growth, [1]
0.6125 µM	1.1	1.05
1.25 µM	1.03	0.819
2.5 µM	1.09	0.779
5 µM	0.693	0.711
10 µM	0.0218	-0.0128
20 µM	0.0164	-0.032

CC=CC1=C(C(=O)O)N2C(=O)[C@@H](NC(=O)[C@H](N)c3ccc(O)cc3)[C@H]2SC1 [Cefprozil]
Conditions	fold change of Tryptamine concentration, [2]	growth, [1]
0.6125 µM	1	1.1
1.25 µM	0.973	0.85
2.5 µM	1	1.02
5 µM	0.974	0.79
10 µM	0.926	0.573
20 µM	0.722	0.194

CC1(C)S[C@@H]2[C@H](NC(=O)[C@H](N)c3ccccc3)C(=O)N2[C@H]1C(=O)OC1OC(=O)c2ccccc21 (stereo partly drawn) [Talampicillin hydrochloride]
Conditions	fold change of 2-Phenylethylamine concentration, [7]	fold change of Cadaverine concentration, [6]	fold change of Histamine concentration, [4]	fold change of Putrescine concentration, [3]	fold change of Tryptamine concentration, [9]	growth, [5]	growth, [8]
0.6125 µM	0.103	0.97	0.999	1.03	0.121	0.802	1.73
1.25 µM	0.105	0.967	0.862	1.05	0.116	0.804	0.81
2.5 µM	0.112	0.958	1.31	1.01	0.136	0.905	0.918
5 µM	0.1	1.03	1.27	1.08	0.13	1.1	1.33
10 µM	0.138	1.09	0.959	1.11	0.174	1.1	0.729
20 µM	0.102	1.17	0.912	1.12	0.135	0.477	0.199

C[C@]1(Cn2ccnn2)[C@H](C(=O)O)N2C(=O)C[C@H]2S1(=O)=O [Tazobactam]
Conditions	fold change of Tryptamine concentration, [2]	growth, [1]
0.6125 µM	1	1.01
1.25 µM	1.01	1.05
2.5 µM	1.11	1.01
5 µM	1.08	1.01
10 µM	0.984	0.648
20 µM	0.921	0.353

Cc1cc(C(C#N)c2ccc(Cl)cc2)c(Cl)cc1NC(=O)c1cc(I)cc(I)c1O (stereo not drawn) [Closantel]
Conditions	fold change of Tryptamine concentration, [2]	growth, [1]
0.6125 µM	0.999	0.882
1.25 µM	1.02	0.866
2.5 µM	0.991	0.792
5 µM	0.895	0.749
10 µM	0.367	0.364
20 µM	0.0184	-0.0258

— the supplement of paper PMC12494721
